We go through 4 compounds from patent US20240009190A1, “COMBINATION CANCER THERAPY USING CHK INHIBITOR” (SHANGHAI HUAYU BIOTECHNOLOGY CO., LTD., priority 2020, published 2024).

The subject of one data set is CT-26 WT cells. The data set is described as follows: CT-26 WT subcutaneous tumor model, CHK inhibitors at lower dose with anti-m-PD-1 antibody (Example 2). The data set is classed as in vivo, BALB/c female mice. Particulars: for Average tumor size: compounds 15 mg/kg tail vein once per day, anti-m-PD-1 10 mg/kg IP once every five days; for Tumor weight based TGI: compounds 15 mg/kg, anti-m-PD-1 10 mg/kg; for Tumor weight, Average: group average of 8 mice; for Tumor weight, Mouse no. 1 / Tumor weight, Mouse no. 2 / Tumor weight, Mouse no. 3 / Tumor weight, Mouse no. 4 / Tumor weight, Mouse no. 5 / Tumor weight, Mouse no. 6 / Tumor weight, Mouse no. 7 / Tumor weight, Mouse no. 8: individual mouse. On the procedure: The anti-tumor effect of Compound 6 at a lower dose in combination with an anti-PD-1 antibody was studied in this Example. Further, three compounds obtained by structurally modifying Compound 6, i.e., Compound 6-1, Compound 6-2 and Compound 6-3, were tested alone or in combination with an anti-PD-1 antibody for their anti-tumor effects.
At Day 0, 105 BALB/c female mice, 4-5 weeks old, were subcutaneously injected with about 200.0 μL of the CT-26 WT cell medium containing about 5×10^5 cells, respectively.
At Day 5, 80 tumor-bearing mice were randomly assigned to ten groups according to their body weights, 8 mice per group. The remaining mice were subject to euthanasia.
The ten groups of animals were administered with an anti-m-PD-1 antibody (BE0146, BioXcell) in PBS (21-040-CVR, BioXcell) at 1.0 mg/mL, Compound 6 in saline at 1.5 mg/mL, Compound 6-1 in saline at 1.5 mg/mL, Compound 6-2 in saline at 1.5 mg/mL, Compound 6-3 in saline at 1.5 mg/mL, the anti-m-PD-1 antibody+Compound 6, the anti-m-PD-1 antibody+Compound 6-1, the anti-m-PD-1 antibody+Compound 6-2, the anti-m-PD-1 antibody+Compound 6-3, and the control vehicle (saline), respectively, at doses shown in Table 3 below.
(§1) Mice were observed every day for their physical conditions and activities, and mice body weight and tumor volume were measured every Tuesday, Thursday and Sunday. The tumor volume (V) was calculated as (length×width^2)/2.
(§2) At Day 23, mice were subject to euthanasia, from which tumors were collected, weighed and photographed. Mice body weights, tumor sizes and tumor weights were analyzed using the t-test in SPSS, and group differences were deemed statistically significant when the p-value was 0.05 or less. Tumor weight based tumor growth inhibition (TGI) and Zheng-Jun Jin's Q value were calculated.

Data set [1] can be described thus: Mice body weight in CT-26 WT tumor model (Example 2). The data set is classed as in vivo, BALB/c female mice. Particulars: for Average body weight: compounds 15 mg/kg tail vein once per day, anti-m-PD-1 10 mg/kg IP once every five days; for average mice weight, tumor weight deducted: compounds 15 mg/kg, anti-m-PD-1 10 mg/kg. The method, then: as §1, §2
The test system of another data set is MC38 cells. Kind of data set: MC38 tumor model in transgenic mice, Compound 6, anti-PD-1 antibody and gemcitabine (Example 5). It counts as in vivo, C57BL/6-Pdcd1^em(hPDCD1) Cd274^em1(hPD-L1)/Smoc mice. Particulars: Day 23; Compound 6 15 mg/kg IP QD × 14; GEM 20 mg/kg IV QW × 2; anti-PD-1 10 mg/kg IP Q5D × 3. On the procedure: MC38 cells were maintained at 37° C. in 5% CO2 in RPMI 1640 medium (10-040-CV, Corning cellgro) supplemented with 10% FBS (10270-106, GIBCO) and used before the 10th subculture.
Female C57BL/6-Pdcd1^em(hPDCD1) Cd274^em1(hPD-L1)/Smoc mice (Shanghai Model Organisms), 20-25 g, were subcutaneously injected with about 5×10^5 MC38 cells, respectively.
When tumors grew to 50-70 mm^3, these mice were randomly assigned to 8 groups, 8 mice per group, this day was at Day 9. From Day 9, the animals were administered with gemcitabine (GEM) in saline at 20 mg/mL, an anti-PD-1 antibody (Toripalimab, Shanghai Junshi Biosciences Co., Ltd. China) in saline at 40 mg/mL, Compound 6 in saline at 8 mg/mL, Compound 6+gemcitabine, gemcitabine+anti-PD-1, Compound 6+anti-PD-1, Compound 6+gemcitabine+anti-PD-1, and the control vehicle (5% GS), respectively, according to the dosing regimen shown in Table 11 below.
Mice were observed every day for their physical conditions and activities, and mice body weight and tumor volume were measured every other day. The tumor volume (V) was calculated as (length×width^2)/2.
Mice body weights, and tumor sizes were analyzed using the t-test in SPSS, and group differences were deemed statistically significant when the p-value was 0.05 or less.
Tumor growth inhibition (TGI) was calculated by the following formula. Tumor growth inhibition=(average tumor size in vehicle group-average tumor size in administration group)/average tumor size in vehicle group×100%
Zheng-Jun Jin's Q value was calculated as described above.

For the compound `NC(=O)c1nnc(OC2CCCNC2)c2cc(-c3cccc(F)c3)sc12` (stereo not shown) [Compound 6-1, 2-(3-fluorophenyl)-4-(3-piperidinyloxy)-thieno[2,3-d]pyridazine-7-carboxylic acid amide], the Average tumor size with CT-26 WT cells (Day 9) is on record as 171.59 mm^3; in the data set with CT-26 WT cells (Day 10), 257.64 mm^3; in the data set on CT-26 WT cells (Day 12), 367.95 mm^3; with CT-26 WT cells (Day 14), 550.08 mm^3; with CT-26 WT cells (Day 16) it was 677.06 mm^3; in the data set on CT-26 WT cells (Day 18), 780.61 mm^3. The Average tumor size turned out to be 972.02 mm^3 in the data set with CT-26 WT cells (Day 20), 1062.24 mm^3 with CT-26 WT cells (Day 22) and 1179.61 mm^3 in the data set on CT-26 WT cells (Day 23). For the same compound, the “Tumor weight based TGI” value in the data set on CT-26 WT cells (Day 23) is reported as 45.63%. The “Tumor weight, Average” value in the data set on CT-26 WT cells (Day 23) was 1.54 g. Also, the “Tumor weight, Mouse no. 1” value with CT-26 WT cells (Day 23) was 0.87 g. Besides, the “Tumor weight, Mouse no. 2” value in the data set on CT-26 WT cells (Day 23) was 1.19 g. In addition, in the data set on CT-26 WT cells (Day 23), the “Tumor weight, Mouse no. 3” value is 2.32 g. The “Tumor weight, Mouse no. 4” value with CT-26 WT cells (Day 23) is 2.87 g. Moreover, the “Tumor weight, Mouse no. 5” value with CT-26 WT cells (Day 23) was 1.58 g. Besides, in the data set on CT-26 WT cells (Day 23), the “Tumor weight, Mouse no. 6” value came out at 1.68 g. The “Tumor weight, Mouse no. 7” value with CT-26 WT cells (Day 23) is 1.31 g. Further, the “Tumor weight, Mouse no. 8” value with CT-26 WT cells (Day 23) is 0.49 g. Besides, the Average body weight in data set [1] (Day 9) was 16.29 g; in data set [1] (Day 10) it was 16.75 g; in data set [1] (Day 12), 16.89 g; in data set [1] (Day 14) it was 17.18 g; in data set [1] (Day 16), 17.79 g; in data set [1] (Day 18) it was 17.99 g. Besides, the Average body weight is listed as 18.32 g in data set [1] (Day 20), 18.57 g in data set [1] (Day 22) and 19.31 g in data set [1] (Day 23). Moreover, the “average mice weight, tumor weight deducted” value (“average mice weight” below) in data set [1] (Day 23) was found to be 17.77 g.

As to `NC(=O)c1nnc(SC2CCCNC2)c2cc(-c3cccc(F)c3)sc12` (stereo not shown) [Compound 6-2, 2-(3-fluorophenyl)-4-(3-piperidinylthio)-thieno[2,3-d]pyridazine-7-carboxylic acid amide], the Average tumor size in the data set with CT-26 WT cells (Day 9) amounted to 196.37 mm^3; in the data set on CT-26 WT cells (Day 10) it was 278.84 mm^3; with CT-26 WT cells (Day 12), 391.83 mm^3; with CT-26 WT cells (Day 14), 570.64 mm^3; in the data set on CT-26 WT cells (Day 16) it was 698.18 mm^3; with CT-26 WT cells (Day 18) it was 805.13 mm^3. The values for the Average tumor size in the data set on CT-26 WT cells (Day 20), in the data set on CT-26 WT cells (Day 22) and with CT-26 WT cells (Day 23) were 974.34 mm^3, 1196.22 mm^3 and 1334.63 mm^3, respectively. In addition, the “Tumor weight based TGI” value with CT-26 WT cells (Day 23) came to 43.82%. In addition, the “Tumor weight, Average” value in the data set with CT-26 WT cells (Day 23) is recorded as 1.59 g. The “Tumor weight, Mouse no. 1” value in the data set on CT-26 WT cells (Day 23) worked out at 0.84 g. In addition, the “Tumor weight, Mouse no. 2” value with CT-26 WT cells (Day 23) is on record as 1.58 g. In the data set on CT-26 WT cells (Day 23), the “Tumor weight, Mouse no. 3” value is listed as 0.84 g. Moreover, the “Tumor weight, Mouse no. 4” value in the data set on CT-26 WT cells (Day 23) was found to be 2.56 g. Moreover, in the data set with CT-26 WT cells (Day 23), the “Tumor weight, Mouse no. 5” value turned out to be 1.78 g. In the data set with CT-26 WT cells (Day 23), the “Tumor weight, Mouse no. 6” value is reported as 2.12 g. Further, in the data set on CT-26 WT cells (Day 23), the “Tumor weight, Mouse no. 7” value worked out at 0.89 g. In the data set on CT-26 WT cells (Day 23), the “Tumor weight, Mouse no. 8” value was determined as 2.11 g. The Average body weight in data set [1] (Day 9) turned out to be 16.45 g; in data set [1] (Day 10), 16.69 g; in data set [1] (Day 12) it was 16.78 g; in data set [1] (Day 14), 17.22 g; in data set [1] (Day 16), 17.62 g; in data set [1] (Day 18) it was 18.05 g. The Average body weight in data set [1] (Day 20) turned out to be 18.67 g; in data set [1] (Day 22), 19.14 g; in data set [1] (Day 23) it was 19.63 g. Also, the “average mice weight” value in data set [1] (Day 23) is given as 18.04 g.

`NC(=O)c1nnc(CC2CCCNC2)c2cc(-c3cc(Cl)cc(Cl)c3)sc12` (stereo not shown) [Compound 6-3, 2-(3,5-dichlorophenyl)-4-(3-piperidinemethyl)-thieno[2,3-d]pyridazinyl-7-formamide]: the Average tumor size in the data set with CT-26 WT cells (Day 9) is on record as 162.03 mm^3; in the data set with CT-26 WT cells (Day 10), 282.00 mm^3; in the data set with CT-26 WT cells (Day 12) it was 417.93 mm^3; in the data set with CT-26 WT cells (Day 14), 527.17 mm^3; in the data set on CT-26 WT cells (Day 16), 718.27 mm^3; in the data set with CT-26 WT cells (Day 18), 828.07 mm^3. The values for the Average tumor size with CT-26 WT cells (Day 20), in the data set on CT-26 WT cells (Day 22) and in the data set with CT-26 WT cells (Day 23) were 1072.57 mm^3, 1334.48 mm^3 and 1558.87 mm^3, respectively. Moreover, the “Tumor weight based TGI” value with CT-26 WT cells (Day 23) is given as 32.73%. The “Tumor weight, Average” value in the data set on CT-26 WT cells (Day 23) is listed as 1.90 g. In addition, the “Tumor weight, Mouse no. 1” value in the data set on CT-26 WT cells (Day 23) worked out at 2.85 g. The “Tumor weight, Mouse no. 2” value in the data set on CT-26 WT cells (Day 23) is recorded as 1.24 g. The “Tumor weight, Mouse no. 3” value in the data set with CT-26 WT cells (Day 23) is reported as 2.76 g. Further, the “Tumor weight, Mouse no. 4” value with CT-26 WT cells (Day 23) is recorded as 1.31 g. The “Tumor weight, Mouse no. 5” value in the data set with CT-26 WT cells (Day 23) was found to be 1.97 g. Besides, the “Tumor weight, Mouse no. 6” value with CT-26 WT cells (Day 23) is 1.03 g. Moreover, in the data set with CT-26 WT cells (Day 23), the “Tumor weight, Mouse no. 7” value is given as 3.12 g. Besides, the “Tumor weight, Mouse no. 8” value in the data set on CT-26 WT cells (Day 23) stood at 0.95 g. In addition, the Average body weight in data set [1] (Day 9) turned out to be 15.99 g; in data set [1] (Day 10), 16.25 g; in data set [1] (Day 12), 16.51 g; in data set [1] (Day 14) it was 17.26 g; in data set [1] (Day 16) it was 17.91 g; in data set [1] (Day 18), 18.13 g. The values for the Average body weight in data set [1] (Day 20), in data set [1] (Day 22) and in data set [1] (Day 23) were 18.75 g, 19.38 g and 20.06 g, respectively. Also, in data set [1] (Day 23), the “average mice weight” value was 18.16 g.

For the compound `Nc1ccn([C@@H]2O[C@H](CO)[C@@H](O)C2(F)F)c(=O)n1` [GEM, gemcitabine, reference compound], the “TGI based on tumor sizes” value with MC38 cells was 30.02%.
